Measurements: BigSolDB 2.1

Work on Nc1cc(C(=O)O)ccc1C(=O)O yielded a solubility (mole fraction) (in ethanol, 303.15 K) of 0.0349, a solubility (mole fraction) (in ethanol, 308.15 K) of 0.0383 and a solubility (mole fraction) (in ethanol, 313.15 K) of 0.0422. It also gave a solubility (mole fraction) (in ethanol, 318.15 K) of 0.0461, a solubility (mole fraction) (in ethanol, 323.15 K) of 0.051 and a solubility (mole fraction) (in ethanol, 328.15 K) of 0.0552. For the same compound, the solubility (mole fraction) (in ethanol, 333.15 K) was 0.06, the solubility (mole fraction) (in ethanol, 338.15 K) was 0.0655 and the solubility (mole fraction) (in isopentanol, 303.15 K) was 0.00536. For the same compound, the solubility (mole fraction) (in isopentanol, 308.15 K) was 0.00583, the solubility (mole fraction) (in isopentanol, 313.15 K) was 0.00643 and the solubility (mole fraction) (in isopentanol, 323.15 K) was 0.00764. The solubility (mole fraction) (in isopentanol, 333.15 K) was 0.00895, the solubility (mole fraction) (in isopentanol, 338.15 K) was 0.00972 and the solubility (mole fraction) (in isopropanol, 303.15 K) was 0.0211. For the same compound, the solubility (mole fraction) (in isopropanol, 308.15 K) was 0.0236, the solubility (mole fraction) (in isopropanol, 318.15 K) was 0.0293 and the solubility (mole fraction) (in isopropanol, 323.15 K) was 0.0326. It also gave a solubility (mole fraction) (in isopropanol, 338.15 K) of 0.0441, a solubility (mole fraction) (in methanol, 303.15 K) of 0.0685 and a solubility (mole fraction) (in methanol, 313.15 K) of 0.0794. The solubility (mole fraction) (in methanol, 318.15 K) was 0.0853, the solubility (mole fraction) (in methanol, 323.15 K) was 0.0917 and the solubility (mole fraction) (in methanol, 328.15 K) was 0.0982. The solubility (mole fraction) (in methanol, 333.15 K) was 0.105, the solubility (mole fraction) (in methanol, 338.15 K) was 0.112 and the solubility (mole fraction) (in n-butanol, 303.15 K) was 0.00721. It also gave a solubility (mole fraction) (in n-butanol, 308.15 K) of 0.00854, a solubility (mole fraction) (in n-butanol, 313.15 K) of 0.0098 and a solubility (mole fraction) (in n-butanol, 318.15 K) of 0.0112. It also gave a solubility (mole fraction) (in n-butanol, 323.15 K) of 0.0131, a solubility (mole fraction) (in n-butanol, 333.15 K) of 0.0168 and a solubility (mole fraction) (in n-butanol, 338.15 K) of 0.0189. It also gave a solubility (mole fraction) (in n-propanol, 303.25 K) of 0.0137, a solubility (mole fraction) (in n-propanol, 308.75 K) of 0.0165 and a solubility (mole fraction) (in n-propanol, 313.75 K) of 0.0193. The solubility (mole fraction) (in n-propanol, 318.15 K) was 0.0223, the solubility (mole fraction) (in n-propanol, 323.15 K) was 0.0256 and the solubility (mole fraction) (in n-propanol, 328.15 K) was 0.0293. The solubility (mole fraction) (in n-propanol, 333.15 K) was 0.0334, the solubility (mole fraction) (in n-propanol, 338.15 K) was 0.0392 and the solubility (mole fraction) (in sec-butanol, 303.15 K) was 0.00989. It also gave a solubility (mole fraction) (in sec-butanol, 308.15 K) of 0.0119, a solubility (mole fraction) (in sec-butanol, 313.15 K) of 0.0139 and a solubility (mole fraction) (in sec-butanol, 323.15 K) of 0.0192. It also gave a solubility (mole fraction) (in sec-butanol, 328.15 K) of 0.0222, a solubility (mole fraction) (in sec-butanol, 338.15 K) of 0.0297 and a solubility (mole fraction) (in tert-butanol, 303.15 K) of 0.0216. For the same compound, the solubility (mole fraction) (in tert-butanol, 308.15 K) was 0.0237, the solubility (mole fraction) (in tert-butanol, 313.15 K) was 0.0268 and the solubility (mole fraction) (in tert-butanol, 318.15 K) was 0.0293. For the same compound, the solubility (mole fraction) (in tert-butanol, 323.15 K) was 0.0315, the solubility (mole fraction) (in tert-butanol, 328.15 K) was 0.0351 and the solubility (mole fraction) (in tert-butanol, 333.15 K) was 0.0375. For the same compound, the solubility (mole fraction) (in tert-butanol, 338.15 K) was 0.0421.
